Experimental data from patent EP1027361B1, “6,11-BRIDGED ERYTHROMYCIN DERIVATIVES” (Abbott Laboratories, priority 1997, dated 1999).

Assays:
Assay in all cases: in vitro antibacterial activity, agar dilution MIC
Assay type in all cases: cell-based
Candida albicans CCH 442 = conditions: organism code TT, BHI agar, 35-37 °C, 20 to 24 hours
Experimental: (§1) Representative compounds of the present invention were assayed in vitro for antibacterial activity as follows: Twelve petri dishes containing successive aqueous dilutions of the test compound mixed with 10 mL of sterilized Brain Heart Infusion (BHI) agar (Difco 0418-01-5) were prepared. Each plate was inoculated with 1:100 (or 1:10 for slow-growing strains, such as Micrococcus and Streptococcus) dilutions of up to 32 different microorganisms, using a Steers replicator block. […] In addition, a control plate, using BHI agar containing no test compound, was prepared and incubated at the beginning and end of each test
(§2) An additional plate containing a compound having known susceptibility patterns for the organisms being tested and belonging to the same antibiotic class as the test compound was also prepared and incubated as a further control, as well as to provide test-to-test comparability.
(§3) After incubation, each plate was visually inspected. The minimum inhibitory concentration (MIC) was defined as the lowest concentration of drug yielding no growth, a slight haze, or sparsely isolated colonies on the inoculum spot as compared to the growth control.

[1] = system: Streptococcus pyogenes 930; conditions: organism code MM, BHI agar, 35-37 °C, 20 to 24 hours
Experimental: as §1, §2, §3

[2] = system: Staphylococcus aureus A-5278; conditions: organism code CC, BHI agar, 35-37 °C, 20 to 24 hours
Experimental: as §1, §2, §3

[3] = system: Streptococcus pyogenes PIU 2548; conditions: organism code NN, BHI agar, 35-37 °C, 20 to 24 hours
Experimental: as §1, §2, §3

Escherichia coli DC-2 = conditions: organism code SS, BHI agar, 35-37 °C, 20 to 24 hours
Experimental: as §1, §2, §3

[4] = system: Streptococcus Pheumoniae 5979; conditions: organism code ZZ, BHI agar, 35-37 °C, 20 to 24 hours
Experimental: as §1, §2, §3

[5] = system: Staphylococcus aureus 1775; conditions: organism code GG, BHI agar, 35-37 °C, 20 to 24 hours
Experimental: as §1, §2, §3

[6] = system: Staphylococcus aureus A5177; set-up: unit not given here; conditions: organism code BB, BHI agar, 35-37 °C, 20 to 24 hours
Experimental: as §1, §2, §3

[7] = system: Mycobacterium smegmatis ATCC 114; set-up: unit not given here; conditions: organism code UU, BHI agar, 35-37 °C, 20 to 24 hours
Experimental: as §1, §2, §3

[8] = system: Streptococcus pyogenes EES61; set-up: unit not given here; conditions: organism code LL, BHI agar, 35-37 °C, 20 to 24 hours
Experimental: (§4) Erythromycin A was used for this purpose.
(§5) After incubation, each plate was visually inspected.

[9] = system: Staphylococcus aureus ATCC 6538P; set-up: unit not given here; conditions: organism code AA, BHI agar, 35-37 °C, 20 to 24 hours
Experimental: as §4, §5

[10] = system: Streptococcus Pheumoniae ATCC6303; set-up: unit not given here; conditions: organism code XX, BHI agar, 35-37 °C, 20 to 24 hours
Experimental: as §4, §5

[11] = system: Streptococcus agalactiae CMX 508; set-up: unit not given here; conditions: organism code KK, BHI agar, 35-37 °C, 20 to 24 hours
Experimental: as §4, §5

[12] = system: Streptococcus bovis A-5169; set-up: unit not given here; conditions: organism code JJ, BHI agar, 35-37 °C, 20 to 24 hours
Experimental: as §4, §5

[13] = system: Streptococcus Pheumoniae 5649; conditions: organism code ZZA, BHI agar, 35-37 °C, 20 to 24 hours
Experimental: as §4, §5

[14] = system: Micrococcus luteus ATCC 9341; conditions: organism code OO, BHI agar, 35-37 °C, 20 to 24 hours
Experimental: as §4, §5

Escherichia coli SS = conditions: organism code RR, BHI agar, 35-37 °C, 20 to 24 hours
Experimental: as §4, §5

[15] = system: Staphylococcus aureus NCTC10649M; conditions: organism code EE, BHI agar, 35-37 °C, 20 to 24 hours
Experimental: as §4, §5

[16] = system: Nocardia Asteroides ATCC9970; conditions: organism code VV, BHI agar, 35-37 °C, 20 to 24 hours
Experimental: as §4, §5

[17] = system: Micrococcus luteus ATCC 4698; conditions: organism code PP, BHI agar, 35-37 °C, 20 to 24 hours
Experimental: as §4, §5

[18] = system: Streptococcus Pheumoniae GYR 1171; conditions: organism code YY, BHI agar, 35-37 °C, 20 to 24 hours
Experimental: as §4, §5

[19] = system: Enterococcus faecium ATCC 8043; conditions: organism code II, BHI agar, 35-37 °C, 20 to 24 hours
Experimental: as §4, §5

[20] = system: Staphylococcus epidermidis 3519; conditions: organism code HH, BHI agar, 35-37 °C, 20 to 24 hours
Experimental: as §4, §5

[21] = system: Staphylococcus aureus CMX 553; conditions: organism code FF, BHI agar, 35-37 °C, 20 to 24 hours
Experimental: as §4, §5

Escherichia coli JUHL = conditions: organism code QQ, BHI agar, 35-37 °C, 20 to 24 hours
Experimental: as §4, §5

[22] = system: Haemophilis Influenzae DILL AMP R; conditions: organism code WW, BHI agar, 35-37 °C, 20 to 24 hours
Experimental: as §4, §5

[23] = system: Staphylococcus aureus CMX 642A; conditions: organism code DD, BHI agar, 35-37 °C, 20 to 24 hours
Experimental: as §4, §5

SMILES	minimum inhibitory concentration (MIC) (Candida albicans CCH 442)	minimum inhibitory concentration (MIC) [1]	minimum inhibitory concentration (MIC) [2]	minimum inhibitory concentration (MIC) [3]	minimum inhibitory concentration (MIC) (Escherichia coli DC-2)	minimum inhibitory concentration (MIC) [4]	minimum inhibitory concentration (MIC) [5]	minimum inhibitory concentration (MIC) [6]	minimum inhibitory concentration (MIC) [7]	minimum inhibitory concentration (MIC) [8]	minimum inhibitory concentration (MIC) [9]	minimum inhibitory concentration (MIC) [10]	minimum inhibitory concentration (MIC) [11]	minimum inhibitory concentration (MIC) [12]	minimum inhibitory concentration (MIC) [13]	minimum inhibitory concentration (MIC) [14]	minimum inhibitory concentration (MIC) (Escherichia coli SS)	minimum inhibitory concentration (MIC) [15]	minimum inhibitory concentration (MIC) [16]	minimum inhibitory concentration (MIC) [17]	further results
CC[C@H]1OC(=O)[C@H](C)[C@@H](O[C@H]2C[C@@](C)(OC)[C@@H](O)[C@H](C)O2)[C@H](C)[C@@H](O[C@@H]2O[C@H](C)C[C@H](N(C)C)[C@H]2O)[C@@]2(C)C[C@@H](C)C(=O)[C@H](C)[C@H]3N(CCC=CCO2)C(=O)O[C@]13C [Example 17, Compound of Formula (I), R^p is H, m is 2, A is absent, B is absent, D is absen, E is-(CH2)r-CH=CH-, r is 0, n is 1]	>100	>100	>100	25	>100	>128	>100	6.2	0.2	0.02	0.1	0.015	0.01	0.01	8	0.02	0.78	0.2	0.02	0.1	minimum inhibitory concentration (MIC) [18]: 0.015; minimum inhibitory concentration (MIC) [19]: 0.05; minimum inhibitory concentration (MIC) [20]: 0.2; minimum inhibitory concentration (MIC) [21]: 0.1; minimum inhibitory concentration (MIC) (Escherichia coli JUHL): >100; minimum inhibitory concentration (MIC) [22]: 8; minimum inhibitory concentration (MIC) [23]: 0.2
CC[C@H]1OC(=O)[C@H](C)C(=O)[C@H](C)[C@@H](O[C@@H]2O[C@H](C)C[C@H](N(C)C)[C@H]2O)[C@@]2(C)C[C@@H](C)C(=O)[C@H](C)[C@H]3N(CCC=CCO2)C(=O)O[C@]13C [Example 18, Compound of Formula (II), R^p is H, m is 2, A is absent, B is absent, D is absent, E is-(CH2)r-CH=CH-, r is 0, n is 1]	>100	>100	>100	1.56	>100	>128	>100	0.78	12.5	0.2	0.78	1	0.2	0.2	2	0.39	1.56	0.78	0.78	0.78	minimum inhibitory concentration (MIC) [18]: 0.5; minimum inhibitory concentration (MIC) [19]: 0.39; minimum inhibitory concentration (MIC) [20]: 1.56; minimum inhibitory concentration (MIC) [21]: 0.78; minimum inhibitory concentration (MIC) (Escherichia coli JUHL): >100; minimum inhibitory concentration (MIC) [22]: 128; minimum inhibitory concentration (MIC) [23]: 0.78
CC[C@H]1OC(=O)[C@H](C)[C@@H](O[C@H]2C[C@@](C)(OC)[C@@H](O)[C@H](C)O2)[C@H](C)[C@@H](O[C@@H]2O[C@H](C)C[C@H](N(C)C)[C@H]2O)[C@@]2(C)C[C@@H](C)C(=O)[C@H](C)[C@H]3N(CC(O)CC=CCO2)C(=O)O[C@]13C (stereo partly drawn) [Example 19, Compound of Formula (I), R^p is H, m is 1, A is absent, B is -CHOH-(CH2)q-, q is 1, D is absent, E is -(CH2)r-CH=CH-, r is 0, n is 1]	>100	>100	>100	12.5	>100	>128	>100	3.1	0.39	0.05	0.39	0.03	0.05	0.02	16	0.05	0.78	0.78	0.05	0.78	minimum inhibitory concentration (MIC) [18]: 0.03; minimum inhibitory concentration (MIC) [19]: 0.1; minimum inhibitory concentration (MIC) [20]: 0.78; minimum inhibitory concentration (MIC) [21]: 0.78; minimum inhibitory concentration (MIC) (Escherichia coli JUHL): 25; minimum inhibitory concentration (MIC) [22]: 8; minimum inhibitory concentration (MIC) [23]: 0.78
